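1) Cells in 96-well plates. 2) Compound, 48 h, 5 concentrations. 3) Linear interpolation between surrounding doses. 4) Unreached endpoint = highest concentration. GI50: concentration for 50% inhibition of growth.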 Active and inactive are the calls of the source. Rule as the data show it: active = GI50 up to about 1.1 µM and inactive = higher.
How the values were obtained:
Assay in all cases: inhibition of tumour cell growth, NCI panel, 48 h
[1] = test system: CAKI-1
[2] = test system: DU-145
[3] = test system: HCT-116
[4] = test system: HT-29
[5] = test system: Hs-578T
[6] = test system: IGROV-1
[7] = test system: M19-MEL
[8] = test system: MOLT-4
[9] = test system: NCI-H23
[10] = test system: OVCAR-3
[11] = test system: OVCAR-4
[12] = test system: RPMI-8226
[13] = test system: SF-295
[14] = test system: SF-539
[15] = test system: SK-MEL-2
[16] = test system: SK-OV-3
[17] = test system: SW-620
[18] = test system: UACC-257
[19] = test system: UACC-62
[20] = test system: UO-31

Measured: GI50

O=C(Nc1cccc(C(F)(F)F)c1)C(=O)C(C(=O)c1ccc2ccccc2c1)C1OC(=O)c2ccccc21 (stereo not given)
inactive: [1] 12.4 µM | [2] 26.5 µM | [3] 6.82 µM | [4] 13.5 µM | [5] 7.14 µM | [6] 18.2 µM | [7] 8.51 µM | [8] 1.82 µM | [9] 6.46 µM | [10] 16 µM | [11] 9.12 µM | [12] 3.68 µM | [13] 5.19 µM | [14] 2.23 µM | [15] 8.57 µM | [16] 21.6 µM | [17] 6.25 µM | [18] 11.5 µM | [19] 7.53 µM | [20] 12.4 µM
